Test results: patent US20240358735A1, “THERAPEUTIC COMPOSITIONS AND RELATED METHODS” (BOYCE THOMPSON INSTITUTE FOR PLANT RESEARCH, INC., priority 2021, published 2024)

Legend:
[1] = test system: proteasome alpha and beta subunits; experiment: Limited proteolysis-coupled mass spectrometry (LiP-MS) of C. elegans lysates; assay type: binding; conditions: FIG. 35; C. elegans lysate, compound 0.1 mM, proteinase K
Description: (§1) To investigate the cellular interactors of MOGLs, two independent approaches were applied: thermal proteome profiling (TPP) and limited proteolysis-coupled mass spectrometry (LiP-MS), to uncover binding events upon compound treatment of C. elegans lysates using MOGLs of the sngl-class as an example. […] Moreover, there were multiple peptides from proteasome alpha subunits and one peptide from the beta unit that were differential, with absence-present contrast, in the LiP-MS experiment (FIG. 35). Results from these two assays which reflect distinct biophysical properties of protein-small molecule binding, strongly support interaction between sngl #1 and sngl #2 with the proteasome.
To obtain mechanistic insight into the binding of proteasome with sngl #1/sngl #2, LiP-MS data were analyzed to reveal peptides around sub-structures of proteins where the binding occurs.
C. elegans lysate preparation and compound incubation. Synchronized pah-1(syb3596); tph-1(mg280) double knockout C. elegans were grown with ΔtnaA E. coli (JW3686-7) for two generations; growth conditions and harvesting procedures were as described in the ‘Nematode cultures’ section above. […] Protein concentration was determined by Bradford assay (MilliporeSigma) and diluted to 1 mg/mL by lysis buffer. […]

[2] = test system: proteasome alpha and beta subunits; experiment: Thermal proteome profiling (TPP) of C. elegans lysates; assay type: binding; conditions: compound 0.1 mM; for thermal stability of majority detected proteasome alpha and beta subunits (TPP): C. elegans lysate 1 mg/mL, 15 min room temperature, heated; for thermal stability of proteasome subunit PBS-1 (TPP): FIG. 36, C. elegans lysate
Description: as §1
C. elegans lysate preparation and compound incubation. Synchronized pah-1(syb3596); tph-1(mg280) double knockout C. elegans were grown with ΔtnaA E. coli (JW3686-7) for two generations; growth conditions and harvesting procedures were as described in the ‘Nematode cultures’ section above. Worms were lysed by sonication with lysis buffer (25 mM Tris pH 7.5, 150 mM NaCl, 1.5 mM MgCl2.1 mM phenylmethylsulfonyl fluoride, 1× protease inhibitor cocktail (Roche), 1 mM sodium fluoride) for 5 min (3 s on/off pulse cycle at Amp 100). Protein concentration was determined by Bradford assay (MilliporeSigma) and diluted to 1 mg/mL by lysis buffer. To each aliquot of lysate was added compound (sngl #1, sngl #2, N-acetylserotonin, and solvent (ethanol) control (Mock)) to a final concentration of 0.1 mM and the mixtures were shaken for 15 min at room temperature.
Thermal proteome profiling (TPP) sample preparation. Methods were modified from published protocol (Franken, H., T. et al. Nature Protocols 10(10): 1567-1593). Lysate-compound mixture were aliquoted into 0.2-mL PCR tubes, heated at specified temperatures for 3 min using a Thermal Cycler (BioRad), centrifuged at 16,000 g at 4° C. for 5 min, and the supernatant were transferred into Eppendorf tubes. Four volumes of prechilled (−20° C.) acetone were added to each sample for precipitation of proteins overnight. Samples were centrifuged at 16,000 g at 4° C. for 20 min, washed once by methanol, and the resulting protein pellets were dissolved in urea buffer (50 mM ammonium bicarbonate, 2 M thiourea, 6 M urea). To digest proteins for mass spectrometry analysis, proteins were first reduced by dithiothreitol (final concentration 5 mM) for 30 min at room temperature, alkylated by iodoacetamide (final concentration 15 mM) for 30 min at room temperature in the dark, digested by LysC/Trypsin Mix (Promega) (enzyme/substrate=1/30, w/w) based on manufacturer's instructions. […] Peptides were measured by nanoHPLC-MS/MS by standard methods.

CC(=O)NCCc1c[nH]c2ccc(O[C@@H]3O[C@H](CO)[C@@H](O)[C@H](O)[C@H]3O)cc12 [sngl #1, N-(2-(5-(((2S,3R,4S,5S,6R)-3,4,5-trihydroxy-6-(hydroxymethyl)tetrahydro-2H-pyran-2-yl)oxy)-1H-indol-3-yl)ethyl)acetamide]
PAS- or PBS-derived peptides detected in LiP-MS [1]: indicative of specific binding to PAS and PBS | thermal stability of majority detected proteasome alpha and beta subunits (TPP) [2]: significantly change the thermal stability | thermal stability of proteasome subunit PBS-1 (TPP) [2]: affect the thermal stability

CC(=O)NCCc1c[nH]c2ccc(O[C@@H]3O[C@H](CO)[C@@H](O)[C@H](OP(=O)(O)O)[C@H]3O)cc12 [sngl #2, (2S,3R,4S,5R,6R)-2-((3-(2-acetamidoethyl)-1H-indol-5-yl)oxy)-3,5-dihydroxy-6-(hydroxymethyl)tetrahydro-2H-pyran-4-yl dihydrogen phosphate]
PAS- or PBS-derived peptides detected in LiP-MS [1]: indicative of specific binding to PAS and PBS | thermal stability of majority detected proteasome alpha and beta subunits (TPP) [2]: significantly change the thermal stability | thermal stability of proteasome subunit PBS-1 (TPP) [2]: affect the thermal stability
